From ChEMBL document CHEMBL3526019, “Novel cytochrome P450-mediated ring opening of the 1,3,4-oxadiazole in setileuton, a 5-lipoxygenase inhibitor” (Drug Metab Dispos, 2011)
One block for each molecule: values may come before it.

Experiments:
Cytochrome P450 1A1 [1] = target: T1, Cytochrome P450 1A1 (Rattus norvegicus, UniProt P00185); test: Activity of rat recombinant CYP1A1 expressed in baculovirus-infected insect cells assessed as enzyme-mediated compound formation treated with setileuton at 10 uM preincubated for 3 mins measured after 30 mins in presence of 1 mM NADPH; assay type: ADME; details: 0.5 h
T1 sequence (P00185 whole entry): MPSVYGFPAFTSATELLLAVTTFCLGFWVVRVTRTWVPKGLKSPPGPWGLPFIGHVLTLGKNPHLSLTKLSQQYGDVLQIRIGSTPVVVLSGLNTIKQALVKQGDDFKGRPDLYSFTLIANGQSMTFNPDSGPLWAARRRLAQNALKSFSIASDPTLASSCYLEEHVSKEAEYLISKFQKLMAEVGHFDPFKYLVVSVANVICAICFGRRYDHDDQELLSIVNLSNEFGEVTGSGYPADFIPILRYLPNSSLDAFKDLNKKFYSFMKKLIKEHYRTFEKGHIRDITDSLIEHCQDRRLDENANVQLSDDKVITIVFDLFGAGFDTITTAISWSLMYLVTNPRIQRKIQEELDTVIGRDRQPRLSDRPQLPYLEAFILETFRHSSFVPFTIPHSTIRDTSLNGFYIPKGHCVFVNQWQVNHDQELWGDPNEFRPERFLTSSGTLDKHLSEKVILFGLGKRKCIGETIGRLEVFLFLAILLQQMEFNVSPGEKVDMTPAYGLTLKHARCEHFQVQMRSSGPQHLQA

Cytochrome P450 1A2 [2] = target: T2, Cytochrome P450 1A2 (Rattus norvegicus, UniProt P04799); test: Activity of CYP1A2 in rat liver microsomes assessed as enzyme mediated compound formation treated with 10 uM setileuton after 8 mins in absence of NADPH (reference value: 1.93 +/- 0.40 nM); assay type: ADME
T2 sequence (P04799 whole entry): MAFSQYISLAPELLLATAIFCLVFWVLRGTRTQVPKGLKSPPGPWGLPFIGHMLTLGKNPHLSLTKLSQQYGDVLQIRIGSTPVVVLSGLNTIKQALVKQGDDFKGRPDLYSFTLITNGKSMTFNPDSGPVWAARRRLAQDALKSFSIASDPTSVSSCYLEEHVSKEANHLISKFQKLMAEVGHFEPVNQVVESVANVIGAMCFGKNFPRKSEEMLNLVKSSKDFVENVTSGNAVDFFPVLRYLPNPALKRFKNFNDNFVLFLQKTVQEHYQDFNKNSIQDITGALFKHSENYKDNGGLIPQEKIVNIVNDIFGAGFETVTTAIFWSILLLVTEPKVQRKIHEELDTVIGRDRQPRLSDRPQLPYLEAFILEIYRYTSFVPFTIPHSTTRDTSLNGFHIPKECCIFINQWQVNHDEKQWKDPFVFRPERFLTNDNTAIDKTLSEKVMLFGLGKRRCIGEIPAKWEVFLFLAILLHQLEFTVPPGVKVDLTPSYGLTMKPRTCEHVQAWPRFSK

Cytochrome P450 1A2 [3] = target: T2, Cytochrome P450 1A2; test: Activity of CYP1A2 in rat liver microsomes assessed as enzyme mediated compound formation treated with 10 uM setileuton after 2 mins in absence of NADPH (reference value: 1.93 +/- 0.40 nM); assay type: ADME
Cytochrome P450 1A2 [4] = target: T2, Cytochrome P450 1A2; test: Activity of CYP1A2 in rat liver microsomes assessed as enzyme mediated compound formation treated with 10 uM setileuton after 5 mins in presence of NADPH (reference value: 8.10 +/- 2.26 nM); assay type: ADME
Cytochrome P450 1A2 [5] = target: T2, Cytochrome P450 1A2; test: Activity of CYP1A2 in rat liver microsomes assessed as enzyme mediated compound formation treated with 10 uM setileuton after 2 mins in presence of NADPH (reference value: 8.10 +/- 2.26 nM); assay type: ADME
Liver microsome [6] = test: Drug level in NADPH fortified rat liver microsomes treated with setileuton; assay type: ADME
Cytochrome P450 1A2 [7] = target: T2, Cytochrome P450 1A2; test: Activity of CYP1A2 in rat liver microsomes assessed as enzyme mediated compound formation treated with 10 uM setileuton after 10 mins in absence of NADPH (reference value: 1.93 +/- 0.40 nM); assay type: ADME
Cytochrome P450 3A1 [8] = target: T3, Cytochrome P450 3A1 (Rattus norvegicus, UniProt P04800); test: Activity of rat recombinant CYP3A1 expressed in baculovirus-infected insect cells assessed as enzyme-mediated compound formation treated with setileuton at 10 uM preincubated for 3 mins measured after 30 mins in presence of 1 mM NADPH; assay type: ADME; details: 0.5 h
T3 sequence (P04800 whole entry): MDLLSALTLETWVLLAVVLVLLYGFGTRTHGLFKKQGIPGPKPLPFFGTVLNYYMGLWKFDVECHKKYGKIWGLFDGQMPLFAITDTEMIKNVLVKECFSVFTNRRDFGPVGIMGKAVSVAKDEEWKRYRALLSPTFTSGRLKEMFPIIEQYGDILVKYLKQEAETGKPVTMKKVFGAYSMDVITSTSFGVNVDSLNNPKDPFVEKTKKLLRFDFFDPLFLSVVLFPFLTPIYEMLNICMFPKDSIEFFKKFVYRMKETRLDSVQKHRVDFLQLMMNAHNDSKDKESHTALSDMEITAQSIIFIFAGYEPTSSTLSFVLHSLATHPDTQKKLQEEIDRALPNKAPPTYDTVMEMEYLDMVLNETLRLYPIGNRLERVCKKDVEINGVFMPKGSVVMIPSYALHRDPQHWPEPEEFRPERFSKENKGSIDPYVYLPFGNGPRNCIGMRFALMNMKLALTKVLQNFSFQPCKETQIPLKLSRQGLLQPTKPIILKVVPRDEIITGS

Cytochrome P450 1A2 [9] = target: T2, Cytochrome P450 1A2; test: Activity of rat recombinant CYP1A2 expressed in baculovirus-infected insect cells assessed as enzyme-mediated compound formation treated with setileuton at 10 uM preincubated for 3 mins measured after 30 mins in presence of 1 mM NADPH; assay type: ADME; details: 0.5 h
Cytochrome P450 1A2 [10] = target: T2, Cytochrome P450 1A2; test: Activity of CYP1A2 in rat liver microsomes assessed as enzyme mediated compound formation treated with 10 uM setileuton after 10 mins in presence of NADPH (reference value: 8.10 +/- 2.26 nM); assay type: ADME
Cytochrome P450 1A2 [11] = target: T2, Cytochrome P450 1A2; test: Activity of CYP1A2 in rat liver microsomes assessed as enzyme mediated compound formation treated with 10 uM setileuton after 5 mins in absence of NADPH (reference value: 1.93 +/- 0.40 nM); assay type: ADME
[12] = Drug level in rat urine treated with setileuton; assay type: ADME, tissue-based; details: in vivo
Cytochrome P450 1A2 [13] = target: T2, Cytochrome P450 1A2; test: Activity of CYP1A2 in rat liver microsomes assessed as enzyme mediated compound formation treated with 10 uM setileuton after 8 mins in presence of NADPH (reference value: 8.10 +/- 2.26 nM); assay type: ADME
Cytochrome P450 3A2 [14] = target: T4, Cytochrome P450 3A2 (Rattus norvegicus, UniProt P05183); test: Activity of rat recombinant CYP3A2 expressed in baculovirus-infected insect cells assessed as enzyme-mediated compound formation treated with setileuton at 10 uM preincubated for 3 mins measured after 30 mins in presence of 1 mM NADPH; assay type: ADME; details: 0.5 h
T4 sequence (P05183 whole entry): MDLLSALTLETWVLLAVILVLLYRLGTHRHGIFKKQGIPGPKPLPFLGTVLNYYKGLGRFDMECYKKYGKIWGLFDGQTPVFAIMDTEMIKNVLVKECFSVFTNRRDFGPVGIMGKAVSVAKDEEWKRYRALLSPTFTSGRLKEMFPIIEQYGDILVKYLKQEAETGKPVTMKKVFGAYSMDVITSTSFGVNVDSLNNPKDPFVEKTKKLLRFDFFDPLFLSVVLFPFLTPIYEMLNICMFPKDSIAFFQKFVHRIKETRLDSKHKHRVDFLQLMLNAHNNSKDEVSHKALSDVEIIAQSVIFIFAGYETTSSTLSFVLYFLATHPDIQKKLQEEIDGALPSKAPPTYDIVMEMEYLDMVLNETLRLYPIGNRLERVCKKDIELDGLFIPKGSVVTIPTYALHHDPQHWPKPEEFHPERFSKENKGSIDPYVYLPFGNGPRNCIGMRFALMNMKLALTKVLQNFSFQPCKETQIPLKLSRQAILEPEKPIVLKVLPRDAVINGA

[15] = Drug metabolism in rat urine assessed as N-((4-(4-fluorophenyl)-2-oxochroman-7-yl)methyl)-2-((S)-2-hydroxy-2-(trifluoromethyl)butanoyl)hydrazinecarboxamide level; assay type: ADME, tissue-based
Liver microsome [16] = test: Drug metabolism in NADPH fortified rat liver microsomes assessed as N-((4-(4-fluorophenyl)-2-oxochroman-7-yl)methyl)-2-((S)-2-hydroxy-2-(trifluoromethyl)butanoyl)hydrazinecarboxamide level; assay type: ADME
Cytochrome P450 1A2 [17] = target: T2, Cytochrome P450 1A2; test: (§1) Activity of rat recombinant CYP1A2 expressed in baculovirus-infected insect cells assessed as enzyme-mediated N-((4-(4-fluorophenyl)-2-oxochroman-7-yl)methyl)-2-((S)-2-hydroxy-2-(trifluoromethyl)butanoyl)hydrazinecarboxamide formation at 10 uM preincubated for 3 mins measured after 30 mins in presence of 1 mM NADPH; assay type: ADME; details: 0.5 h
Liver microsome [18] = test: Drug metabolism in rat liver microsomes assessed as N-((4-(4-fluorophenyl)-2-oxochroman-7-yl)methyl)-2-((S)-2-hydroxy-2-(trifluoromethyl)butanoyl)hydrazinecarboxamide formation by Michaelis-Menten equation in presence of 1 mM NADPH for 10 mins; assay type: ADME
Cytochrome P450 3A1 [19] = target: T3, Cytochrome P450 3A1; test: as §1, with “CYP3A1” for “CYP1A2”; assay type: ADME; details: 0.5 h
Cytochrome P450 3A1 [20] = target: T3, Cytochrome P450 3A1; test: (§2) Activity of rat recombinant CYP3A1 expressed in baculovirus-infected insect cells assessed as enzyme-mediated N-((4-(4-fluorophenyl)-2-oxochroman-7-yl)methyl)-2-((S)-2-hydroxy-2-(trifluoromethyl)butanoyl)hydrazinecarboxamide formation preincubated for 3 mins by Michaelis-Menten equation in presence of NADPH for 10 mins; assay type: ADME
Cytochrome P450 1A2 [21] = target: T2, Cytochrome P450 1A2; test: as §2, with “CYP1A2” for “CYP3A1”; assay type: ADME
Cytochrome P450 3A2 [22] = target: T4, Cytochrome P450 3A2; test: as §1, with “CYP3A2” for “CYP1A2”; assay type: ADME; details: 0.5 h
Cytochrome P450 1A1 [23] = target: T1, Cytochrome P450 1A1; test: as §1, with “CYP1A1” for “CYP1A2”; assay type: ADME; details: 0.5 h
[24] = substrate: CC[C@](O)(c1nnc(NCc2ccc3c(-c4ccc(F)cc4)cc(=O)oc3c2)o1)C(F)(F)F; test: as §2, with “CYP1A1” for “CYP3A1”; assay type: ADME
[25] = substrate: CC[C@](O)(c1nnc(NCc2ccc3c(-c4ccc(F)cc4)cc(=O)oc3c2)o1)C(F)(F)F; test: as §2, with “CYP3A2” for “CYP3A1”; assay type: ADME

B1: Cytochrome P450 1A1 (Rattus norvegicus) (protein)
chain: T1 sequence (P00185 whole entry)
Km [24]: 6 µM

B2: Cytochrome P450 3A2 (Rattus norvegicus) (protein)
chain: T4 sequence (P05183 whole entry)
Km [25]: 2.2 µM

Now from value to molecule:

Drug metabolism (Cytochrome P450 1A1 [1]): metabolite_detected | Drug metabolism (Cytochrome P450 1A2 [2]): 1.43 nM | Drug metabolism (Cytochrome P450 1A2 [3]): 1.81 nM | Drug metabolism (Cytochrome P450 1A2 [4]): 57.93 nM | Drug metabolism (Cytochrome P450 1A2 [5]): 29.74 nM | Drug metabolism (Liver microsome [6]): metabolite_detected | Drug metabolism (Cytochrome P450 1A2 [7]): 1.56 nM | Drug metabolism (Cytochrome P450 3A1 [8]): metabolite_detected | Drug metabolism (Cytochrome P450 1A2 [9]): metabolite_detected | Drug metabolism (Cytochrome P450 1A2 [10]): 100.4 nM | Drug metabolism (Cytochrome P450 1A2 [11]): 1.66 nM | Drug metabolism [12]: metabolite_detected | Drug metabolism (Cytochrome P450 1A2 [13]): 74.89 nM | Drug metabolism (Cytochrome P450 3A2 [14]): metabolite_detected
Molecule: CC[C@](O)(C(=O)NNC(=O)NCc1ccc2c(-c3ccc(F)cc3)cc(=O)oc2c1)C(F)(F)F

Drug metabolism [15]: metabolite_detected | Drug metabolism (Liver microsome [16]): metabolite_detected | Drug metabolism (Cytochrome P450 1A2 [17]): metabolite_detected | S50 (Liver microsome [18]): 10.6 µM | Drug metabolism (Cytochrome P450 3A1 [19]): metabolite_detected | S50 (Cytochrome P450 3A1 [20]): 8.2 µM | S50 (Cytochrome P450 1A2 [21]): 8.2 µM | Drug metabolism (Cytochrome P450 3A2 [22]): metabolite_detected | Drug metabolism (Cytochrome P450 1A1 [23]): metabolite_detected
Molecule: CC[C@](O)(c1nnc(NCc2ccc3c(-c4ccc(F)cc4)cc(=O)oc3c2)o1)C(F)(F)F [SETILEUTON]
